Drawing on patent US7205326B2, “Aniline derivatives, their manufacture and use as pharmaceutical agents” (Hoffmann-La Roche Inc., priority 2003, dated 2007), this text covers IC50 and melting point for 8 compounds.

One data set relates to HCT116 cells. Briefly: HCT116 cell proliferation MTT assay. Type of data set: cell-based. As to conditions: HCT-116; HCT116 human colon carcinoma cells, MTT assay after 5 days (120 h) incubation, compound 3 uM to 0.15 nM. Here is the method: HCT116 cells (human colon carcinoma cell line) were cultivated in RPMI 1640, 2.5% FCS, 2 mM Glutamine, 100 u/ml Penicillin, 100 ug/ml Streptomycin. For the assay the cells were seeded in 384 well plates, 1000 cells per well, in the same medium
The next day compounds (dissolved 10 mM in DMSO) were added in various concentrations ranging from 3 uM to 0.15 nM. After 5 days the MTT assay was done mainly according to the instructions of the manufacturer (Cell proliferation kit I, MTT, from Roche Molecular Biochemicals). In brief: MTT labeling reagent was added to a final concentration of 0.5 mg/ml, added and incubated for 4 hrs at 37° C., 5% CO2. During this incubation time purple formazan crystals are formed. After addition of the solubilization solution (20% SDS in 0.02 M HCl) the plates were incubated overnight at 37° C., 5% CO2. After careful mixing plates were measured in Victor 2 (scanning multiwell spectrophotometer, Wallac) at 550 nm.
A decrease in number of living cells results in a decrease in the total metabolic activity in the sample. The decrease directly correlates to the amount of purple color resulting from the solubilization of the purple formazan crystals.
Materials: • HCT116 1000 cells in 60 ul per well of 384 well plate (Greiner) • Medium: RPMI 1640, 2.5% FCS, glutamine, pen/strep. • Incubate 1 day at 37° C.
Induction: • Dilution of compound in DMSO: 3 ul 10 mM+27 ul DMSO, dilute 1:3 • Add 2 ul of compound dilution row to 95 ul of medium • Add 10 ul of compound dilution to 60 ul medium in test plate results in 0.3% DMSO per well • Incubate 120 h (5 days) at 37° C., 5% CO2
Analysis: • Add 7 ul MTT ([…]), incubate 4 h at 37° C. • Add 30 ul lysis buffer (20% SDS, 0.04N HCl) per well • Incubate overnight at 37° C.
Measurement: • Victor 2 (scanning multiwell spectrophotometer, Wallac), at 550 nm • Determination of IC50 was done using XL-fit.

In turn, `FC(F)(F)c1ccc(C=Cc2nc(CNc3ccc(OCCCn4ccnn4)cc3)co2)cc1` [Example 9, [4-(3-[1,2,3]Triazol-1-yl-propoxy)-phenyl]-{2-[2-(4-trifluoromethyl-phenyl)-vinyl]-oxazol-4-ylmethyl}-amine] came in with a melting point of 134 to 136 °C. This compound also registered an IC50 in the data set with HCT116 cells of under 20 nM.
`CN(Cc1coc(C=Cc2ccc(C(F)(F)F)cc2)n1)c1ccc(OCCCn2ccnn2)cc1` [Example 10, Methyl-[4-(3-[1,2,3]triazol-1-yl-propoxy)-phenyl]-{2-[2-(4-trifluoromethyl-phenyl)-vinyl]-oxazol-4-ylmethyl}-amine] showed a melting point of 137 to 138 °C. In the data set on HCT116 cells, this compound had an IC50 of over 40 nM.
The like results for `O=C(Nc1ccc(CCCCn2ccnn2)cc1)c1coc(C=Cc2ccc(C(F)(F)F)cc2)n1` [Example 11, 2-[2-(4-Trifluoromethyl-phenyl)-vinyl]-oxazole-4-carboxylic acid [4-(4-[1,2,3]triazol-1-yl-butyl)-phenyl]-amide] were, in that order, 183 to 185 °C and 20 to 40 nM.
The like results for `CN(C(=O)c1coc(C=Cc2ccc(C(F)(F)F)cc2)n1)c1ccc(CCCCn2ccnn2)cc1` [Example 12, 2-[2-(4-Trifluoromethyl-phenyl)-vinyl]-oxazole-4-carboxylic acid methyl-[4-(4-[1,2,3]triazol-1-yl-butyl)-phenyl]-amide] were, in that order, 127 to 129 °C and 20 to 40 nM.
With `Clc1ccc(C=Cc2nc(CNc3ccc(CCCCn4ccnn4)cc3)co2)cc1Cl` [Example 25, {2-[2-(3,4-Dichloro-phenyl)-vinyl]-oxazol-4-ylmethyl}-[4-(4-[1,2,3]triazol-1-yl-butyl)-phenyl]-amine], the melting point was in the range of 76.8 to 78.8 °C. Further, the IC50 in the data set on HCT116 cells is under 20 nM.
Consider `Fc1ccc(C=Cc2nc(CNc3ccc(CCCCn4ccnn4)cc3)co2)c(C(F)(F)F)c1` [Example 27, {2-[2-(4-Fluoro-2-trifluoromethyl-phenyl)-vinyl]-oxazol-4-ylmethyl}-[4-(4-[1,2,3]triazol-1-yl-butyl)-phenyl]-amine], for which the melting point lay in the range of 109 to 111 °C. In the data set with HCT116 cells, this compound displayed an IC50 of over 40 nM.
`FC(F)(F)Oc1cccc(C=Cc2nc(CNc3ccc(CCCCn4ccnn4)cc3)co2)c1` [Example 28, [4-(4-[1,2,3]Triazol-1-yl-butyl)-phenyl]-{2-[2-(3-trifluoromethoxy-phenyl)-vinyl]-oxazol-4-ylmethyl}-amine] registered a melting point of 91 to 93 °C. The compound also gave an IC50 in the data set with HCT116 cells of over 40 nM.
The compound `[O-][S+](c1ccc(/C=C/c2nc(CNc3ccc(CCCCn4ccnn4)cc3)co2)cc1)C(F)(F)F` (stereo not shown) [Example 33, [4-(4-[1,2,3]Triazol-1-yl-butyl)phenyl]-{2-[(E)-2-(-4-trifluoromethanesulfinyl-phenyl)-vinyl]-oxazol-4-ylmethyl}-amine] showed a melting point of 121 to 124 °C. In the data set with HCT116 cells, this compound had a half-inhibitory concentration (IC50) of over 40 nM.
